Results reported in patent US7365050B2, “Methods for modulating a drug-related effect or behavior” (The Regents of the University of California, priority 2003, dated 2008).
Read-outs that look alike come from different tables or passages of the source.

Legend:
[1] = tested on: Cav2.2 null mice and wild-type littermates; settings: 2 g/kg ethanol i.p., Cav2.2 null vs wild-type
Method: Mice were trained to remain for 180 s on a rotarod apparatus (Ugo Basile Biological Research, Varese, Italy) rotating at a fixed rate of 20 rpm. The first test session was carried out the following day. During a test session, each mouse was placed on the rotarod and the time taken for the animal to fall off the rod was recorded. Mice were then injected intraperitoneally with ethanol and re-tested every 15 min for 1 h. […] Three further days later, the mice were trained to remain on an accelerating (4-40 rpm) rotarod for 300s.

[2] = tested on: Cav2.2 null mice and wild-type littermates; settings: solutions containing 6% or 10% ethanol
[3] = molecular target: N-type calcium channel (Rattus norvegicus, UniProt Q02294); settings: PC12 cells, 25-200 mM ethanol for 2-8 days; cited from earlier work
Chain of N-type calcium channel (Q02294 whole entry, looked up): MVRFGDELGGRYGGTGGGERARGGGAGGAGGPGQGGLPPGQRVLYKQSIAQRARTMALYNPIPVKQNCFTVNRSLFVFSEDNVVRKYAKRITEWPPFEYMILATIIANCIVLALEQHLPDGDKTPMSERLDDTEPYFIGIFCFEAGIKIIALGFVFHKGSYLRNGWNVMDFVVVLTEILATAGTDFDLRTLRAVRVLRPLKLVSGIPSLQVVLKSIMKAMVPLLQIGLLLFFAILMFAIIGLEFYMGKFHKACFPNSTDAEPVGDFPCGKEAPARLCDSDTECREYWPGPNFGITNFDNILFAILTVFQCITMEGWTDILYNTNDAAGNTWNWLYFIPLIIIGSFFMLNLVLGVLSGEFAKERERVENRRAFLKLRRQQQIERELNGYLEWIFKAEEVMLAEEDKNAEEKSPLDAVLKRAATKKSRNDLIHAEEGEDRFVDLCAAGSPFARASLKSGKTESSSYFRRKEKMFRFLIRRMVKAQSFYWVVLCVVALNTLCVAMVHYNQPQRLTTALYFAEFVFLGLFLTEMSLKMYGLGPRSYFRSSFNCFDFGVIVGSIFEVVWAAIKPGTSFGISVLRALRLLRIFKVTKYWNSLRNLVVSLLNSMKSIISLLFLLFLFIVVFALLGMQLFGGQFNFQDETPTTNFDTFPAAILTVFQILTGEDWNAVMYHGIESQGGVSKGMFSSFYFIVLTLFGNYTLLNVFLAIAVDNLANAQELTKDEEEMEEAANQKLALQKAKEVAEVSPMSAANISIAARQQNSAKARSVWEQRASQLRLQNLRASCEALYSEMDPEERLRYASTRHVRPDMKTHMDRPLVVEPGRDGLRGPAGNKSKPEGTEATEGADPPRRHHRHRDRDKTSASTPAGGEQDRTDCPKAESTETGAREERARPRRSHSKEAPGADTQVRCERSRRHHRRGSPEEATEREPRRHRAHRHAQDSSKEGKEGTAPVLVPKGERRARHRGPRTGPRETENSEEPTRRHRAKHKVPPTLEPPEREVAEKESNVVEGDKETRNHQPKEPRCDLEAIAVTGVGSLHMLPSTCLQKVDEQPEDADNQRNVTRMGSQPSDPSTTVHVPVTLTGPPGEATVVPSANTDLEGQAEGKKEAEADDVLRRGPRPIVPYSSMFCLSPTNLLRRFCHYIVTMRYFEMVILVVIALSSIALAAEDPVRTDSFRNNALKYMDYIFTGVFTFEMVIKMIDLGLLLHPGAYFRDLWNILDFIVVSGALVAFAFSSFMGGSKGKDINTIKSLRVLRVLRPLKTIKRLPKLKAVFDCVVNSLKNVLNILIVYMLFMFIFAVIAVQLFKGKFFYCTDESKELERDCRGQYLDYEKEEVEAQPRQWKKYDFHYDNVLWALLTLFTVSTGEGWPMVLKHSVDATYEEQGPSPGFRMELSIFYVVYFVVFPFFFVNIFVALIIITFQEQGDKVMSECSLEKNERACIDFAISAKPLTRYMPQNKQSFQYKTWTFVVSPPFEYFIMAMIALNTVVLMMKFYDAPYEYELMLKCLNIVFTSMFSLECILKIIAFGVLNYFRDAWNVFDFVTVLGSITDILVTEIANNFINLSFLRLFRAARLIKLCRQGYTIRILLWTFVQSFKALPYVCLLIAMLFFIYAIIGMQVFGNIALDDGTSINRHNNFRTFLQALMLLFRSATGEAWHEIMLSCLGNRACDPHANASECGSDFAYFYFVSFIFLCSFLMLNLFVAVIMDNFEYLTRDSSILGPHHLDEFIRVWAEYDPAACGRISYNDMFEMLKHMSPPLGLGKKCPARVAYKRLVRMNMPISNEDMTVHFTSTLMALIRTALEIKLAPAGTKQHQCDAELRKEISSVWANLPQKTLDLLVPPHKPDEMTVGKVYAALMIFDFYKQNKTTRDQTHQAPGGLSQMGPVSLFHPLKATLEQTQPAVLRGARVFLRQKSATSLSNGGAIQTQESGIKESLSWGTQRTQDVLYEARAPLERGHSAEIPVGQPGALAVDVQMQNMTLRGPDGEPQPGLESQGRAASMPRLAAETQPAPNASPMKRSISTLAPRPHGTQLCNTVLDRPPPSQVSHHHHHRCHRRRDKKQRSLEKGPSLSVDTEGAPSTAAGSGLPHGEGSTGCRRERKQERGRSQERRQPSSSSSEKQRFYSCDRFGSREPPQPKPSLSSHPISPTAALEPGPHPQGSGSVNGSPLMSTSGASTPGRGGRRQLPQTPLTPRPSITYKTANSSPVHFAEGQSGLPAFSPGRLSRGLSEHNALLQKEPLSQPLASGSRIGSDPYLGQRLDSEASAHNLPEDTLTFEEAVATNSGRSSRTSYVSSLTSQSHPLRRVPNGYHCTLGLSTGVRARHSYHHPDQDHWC

[4] = tested on: Cav2.2 null mice and wild-type mice
Method: See Example 2. Mice were injected intraperitoneally with saline and placed in the central, access chamber of a three-chambered apparatus. The door to a second chamber (saline-paired chamber), off the central chamber, was then opened to allow mice access to the second chamber, into which the mice entered. The door was then closed and the mice remained in the second chamber for 5 min before being removed and returned to the home cage. On the following day, the procedure was repeated, except that the mice were given an intraperitoneal injection of ethanol (at the doses indicated in FIG. 2) and allowed to enter, by the same procedure as for the saline-paired side, a third chamber (drug-paired chamber), instead of the saline-paired chamber. The ethanol and saline-paired chambers differed in floor texture and wall color. Drug-paired and saline-paired chambers were assigned randomly, i.e., some mice received ethanol in the same type of chamber in which other mice received saline. This process, saline one day and ethanol the next, was then repeated three times further, resulting in a total of four saline/drug-chamber pairings. On the day immediately following the completion of this 8-day training period, the mice were placed into the central chamber and allowed free access to all three chambers for a total of 30 minutes. Time spent in each of the three chambers was analyzed for each genotype by paired two-tailed t-tests with Bonferroni correction for multiple comparisons. […] To control for a baseline preference for a particular chamber type, all mice received a 30-min test in the chambers prior to training.
Mice were trained in a conditioned place preference (CPP) apparatus (Med Associates, St. Albans, Vt.) that consisted of white and black chambers with different floor textures (black side with rod floor vs. white side with grid floor) that were separated by a central gray access compartment. To measure baseline preference for the test chambers, mice were allowed to roam freely in the entire apparatus for 30 min during the first day of the test. […] The ethanol-paired chamber was assigned randomly across subjects. For conditioning, mice were treated with ethanol (1.2, 2.0, or 2.8 grams/kg v/v in 0.9% saline) and immediately placed in one side for 5 min. On the next day, they were injected with an equivalent volume of saline and placed in the other side. This sequence was repeated four times for a total of 4 days ethanol and 4 days saline, with two rest days halfway through training. On the test day immediately following the final training day, mice were allowed free access to all 3 compartments for 30 min. CPP was assessed by comparing the time spent in the drug-paired chamber on the test day with the time spent in the saline-paired chamber and the central chamber on the test day by paired two-tailed t-tests with Bonferroni correction for multiple comparisons. The mice were considered to have developed CPP for ethanol if they spent more time in the ethanol-paired chamber compared with the other two chambers on the test day.

[5] = tested on: Cav2.2 null mice and wild-type littermates
Method: The conditioned taste aversion study was carried out according to established protocols ([…] and Boyce, 2002) (Chester et al., 2003). Animals were singly housed and acclimatized to limited water access by allowing them access to water for decreasing periods of time (10, 8, 6 and 4 h per day on subsequent days) followed by 2-h daily access for one week. Following acclimatization, they were placed on the conditioning schedule consisting of 1-h access (13:00 to 14:00h) to the conditioned stimulus (CS, a solution of 1.2% (w/v) saline), followed immediately by a saline (0.9% w/v) injection. […] The following day they were allowed two hours of access to drinking water (13:00 to 15:00). This 2-d procedure constituted a single trial and was repeated 7 times to establish baseline consumption levels of 1.2% NaCl. […] Data were compared by two-way ANOVA with factors for injection and genotype.

[6] = tested on: Cav2.2 null mice and littermates; settings: alcohol vapor 3 days, 16 hours per day; Cav2.2 null vs littermates
Method: Handling-induced convulsions (HIC) were measured at various intervals over the next 48 hours.

[7] = 4 g/kg ethanol i.p., Cav2.2 null vs wild-type
[8] = tested on: Cav2.2 null mice and wild-type littermates; remark: listed apart in the source
Method: Both groups of mice were injected intraperitoneally with ethanol (3.6 g/kg in 0.9% w/v saline) and then assessed for loss of the righting reflex (LORR). Loss of the righting reflex was defined as a mouse being unable to right itself 3 times within 30 sec. Upon losing the righting reflex, mice were placed on their backs and the time taken for them to regain the righting reflex was measured. A mouse was defined as having regained the righting reflex when it was able to right itself 3 times within 30 sec. A blood sample was taken from the tail of each mouse when it regained the righting reflex in order to determine blood ethanol concentration. Blood was centrifuged at 10,000 g and serum blood alcohol concentration determined using an Analox AM-1 analyser (Analox Instruments, Luneburg Mass.). We determined the threshold concentration of ethanol required to induce LORR using the “up-and-down” method (Dixon, 1965; Findlay et al., 2002). […] If the first mouse lost the righting reflex, then the next mouse was given a lower ethanol dose. […] The log dose interval was 0.0138, corresponding to approximately a 0.1 g/kg difference between doses. The ED50 value was determined as described (Findlay et al., 2002), with 95% confidence intervals determined by the following equation: 95% CI=dosing increment×square root of (2/n)×1.96, where n=the last n trials (6) and 1.96 reflects the 0.05 α level (Dixon, 1965).

## CCO [ethanol]
[1]
  latency to fall, accelerating (4-40 rpm) rotarod: shorter latency to fall
[2]
  alcohol consumption, Cav2.2 null mice less than wild-type littermates: about 30%
[3]
  binding sites for 125I-ω-conotoxin GVIA: reversible time- and concentration-dependent increase
[4]; Cav2.2 null mice, 2 g/kg ethanol
  conditioned place preference: completely absent
[4]; both genotypes, 1.2 g/kg and 2.8 g/kg ethanol
  conditioned place preference: Neither genotype showed place preference or aversion
[4]; inbred 129/SvJae background, Cav2.2 null
  conditioned place preference: no conditioned place preference
[4]; inbred 129/SvJae background, wild-type, ethanol 1.5 g/kg
  conditioned place preference: significant conditioned place preference
[4]; wild-type mice, 2 g/kg ethanol
  conditioned place preference: robust place preference
[5]; 2 g/kg ethanol injection, both genotypes
  conditioned taste aversion to 1.2% NaCl: both genotypes rapidly developed conditioned taste aversion
[5]; 2 g/kg ethanol, Cav2.2 null vs wild-type
  magnitude of conditioned taste aversion: reduced
[6]
  handling-induced convulsions during alcohol withdrawal: increased handling-induced convulsions
[7]
  clearance of ethanol from the blood: no difference between the genotypes
[8]; 3.6 g/kg ethanol i.p.
  blood ethanol concentration at regaining righting reflex, Cav2.2 null vs wild-type: higher blood ethanol concentration
  decrease in duration of ethanol-induced LORR, Cav2.2 null vs wild-type: 70%
[8]; 10% v/v ethanol i.p., up-and-down method
  increase in threshold ethanol dose that induces LORR, Cav2.2 null vs wild-type: 16%
[8]; inbred 129/SvJae background, Cav2.2 null vs wild-type
  duration of ethanol-induced LORR: decreased duration
